Results taken from paper PMC11790914, “Chemogenomics for steroid hormone receptors (NR3)” (Communications Chemistry, 2025).
Where “and” joins values, the source holds several entries; their conditions need not be identical. Equal entries are not always repeated. Where two headings read alike, the source gives them in different places.

Key:
[1] = target: T1, AURKA (Homo sapiens, UniProt O14965); assay: Liability panel screening by DSF: AURKA; type: binding; settings: read-out: Mean ΔTM AURKA
T1 construct: made in house
T1 sequence (O14965 1-403): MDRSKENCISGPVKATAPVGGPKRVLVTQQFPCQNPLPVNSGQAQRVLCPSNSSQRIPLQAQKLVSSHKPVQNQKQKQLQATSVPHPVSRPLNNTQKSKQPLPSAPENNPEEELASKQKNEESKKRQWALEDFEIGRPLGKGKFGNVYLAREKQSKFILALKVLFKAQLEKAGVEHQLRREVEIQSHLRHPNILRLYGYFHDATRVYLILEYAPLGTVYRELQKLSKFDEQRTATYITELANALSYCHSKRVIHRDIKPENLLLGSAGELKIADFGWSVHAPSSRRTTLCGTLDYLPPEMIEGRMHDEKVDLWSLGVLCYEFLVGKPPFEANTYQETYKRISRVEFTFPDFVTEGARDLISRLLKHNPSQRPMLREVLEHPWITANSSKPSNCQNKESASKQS
How it was run: (§1)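 Thermal shift: in-house recombinant protein at 2 µM in 10 mM HEPES pH 7.5 with 500 mM NaCl, SYPRO Orange 1:1000, heated at 3 °C/min to 85 °C in technical duplicates. Tm is the Boltzmann inflection point, reported as ∆Tm in K.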

[2] = target: T2, ABL1 (Homo sapiens, UniProt P00519); assay: Liability panel screening by DSF: ABL1; type: binding; settings: read-out: Mean ΔTM ABL1
T2 construct: made in house
T2 sequence (P00519 whole entry, species assumed): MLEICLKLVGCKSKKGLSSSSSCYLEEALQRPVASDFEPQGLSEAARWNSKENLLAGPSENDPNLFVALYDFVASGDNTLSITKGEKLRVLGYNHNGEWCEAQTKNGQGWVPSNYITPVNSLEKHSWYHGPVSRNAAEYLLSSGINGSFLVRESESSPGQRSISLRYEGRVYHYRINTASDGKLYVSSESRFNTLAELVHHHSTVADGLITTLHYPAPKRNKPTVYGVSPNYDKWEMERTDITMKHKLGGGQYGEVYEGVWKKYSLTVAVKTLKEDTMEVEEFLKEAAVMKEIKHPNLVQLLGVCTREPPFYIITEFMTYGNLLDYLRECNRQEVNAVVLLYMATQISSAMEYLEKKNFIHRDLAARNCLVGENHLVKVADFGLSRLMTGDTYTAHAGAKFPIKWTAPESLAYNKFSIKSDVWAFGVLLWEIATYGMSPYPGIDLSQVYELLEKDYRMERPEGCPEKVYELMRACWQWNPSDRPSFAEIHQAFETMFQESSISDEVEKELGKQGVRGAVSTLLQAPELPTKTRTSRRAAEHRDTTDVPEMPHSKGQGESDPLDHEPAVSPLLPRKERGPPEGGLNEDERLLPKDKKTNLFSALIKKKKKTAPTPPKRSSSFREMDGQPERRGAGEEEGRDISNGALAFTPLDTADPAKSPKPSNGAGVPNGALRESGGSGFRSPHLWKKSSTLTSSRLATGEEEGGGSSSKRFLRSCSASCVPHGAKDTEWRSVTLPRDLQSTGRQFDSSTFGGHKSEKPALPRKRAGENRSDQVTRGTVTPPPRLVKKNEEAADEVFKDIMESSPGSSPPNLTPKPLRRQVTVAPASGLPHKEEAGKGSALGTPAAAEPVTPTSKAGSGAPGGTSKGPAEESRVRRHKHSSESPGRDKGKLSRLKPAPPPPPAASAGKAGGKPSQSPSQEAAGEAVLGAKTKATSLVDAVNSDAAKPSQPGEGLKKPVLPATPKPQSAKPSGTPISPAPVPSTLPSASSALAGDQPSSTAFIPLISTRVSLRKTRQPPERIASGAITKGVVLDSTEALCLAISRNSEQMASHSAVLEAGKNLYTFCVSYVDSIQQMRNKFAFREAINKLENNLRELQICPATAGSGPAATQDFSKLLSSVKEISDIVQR
How it was run: as §1

[3] = system: NR3A2 (ERβ); settings: cited from earlier work
[4] = target: T3, MAPK1 (Homo sapiens, UniProt P28482); assay: Liability panel screening by DSF: MAPK1; type: binding; settings: read-out: Mean ΔTM MAPK1
T3 construct: made in house
T3 sequence (P28482 whole entry, species assumed): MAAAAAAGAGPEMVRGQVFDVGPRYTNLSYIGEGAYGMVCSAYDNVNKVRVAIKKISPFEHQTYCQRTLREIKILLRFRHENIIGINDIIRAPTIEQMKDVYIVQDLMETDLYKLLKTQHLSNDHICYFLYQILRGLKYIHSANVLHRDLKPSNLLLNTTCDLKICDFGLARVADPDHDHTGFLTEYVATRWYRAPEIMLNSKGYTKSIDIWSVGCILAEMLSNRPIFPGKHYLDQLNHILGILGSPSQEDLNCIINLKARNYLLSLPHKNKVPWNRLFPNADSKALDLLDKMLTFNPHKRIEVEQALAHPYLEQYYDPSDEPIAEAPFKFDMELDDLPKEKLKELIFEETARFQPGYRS
How it was run: as §1

[5] = system: HEK293T cells; assay: Cytotoxicity: necrosis induction (red fluorescent dye for permeable plasma membranes); type: cell-based; settings: 1 µM, 24 h, necrotic cell count normalized to 0.1% DMSO, single replicates;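 also: compounds applied in DMEM high glucose with 0.1% FCS and 0.1% DMSO, necrotic HEK293T cells counted by red staining of cells whose plasma membranes had become permeable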
[6] = system: ATF6 activity in Hela ATF6 reporter cells; assay: Endoplasmic reticulum stress assay (ATF6 Renilla luciferase reporter, tunicamycin); type: cell-based; settings: for ATF6 activity (tunicamycin-induced endoplasmic reticulum stress): Hela ATF6 reporter cells, tunicamycin 100 ng/mL, 18 h, compounds at recommended concentrations, n = 5; for activity at 1 µM: Homo sapiens, HeLa, single replicates n=1 to n=5, read-out: ER stress [rel. ATF6 activity]
How it was run: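 ER stress was induced by 100 ng/mL tunicamycin added 4 h after compound (0.1% DMSO) to HeLa ATF6 reporter cells. After 18 h more, Renilla luciferase signal was read and expressed relative to DMSO control, n=5 biological replicates.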

[7] = target: T4, GSK3B (Homo sapiens, UniProt P49841); assay: Liability panel screening by DSF: GSK3B; type: binding; settings: read-out: Mean ΔTM GSK3B
T4 construct: made in house
T4 sequence (P49841 whole entry, species assumed): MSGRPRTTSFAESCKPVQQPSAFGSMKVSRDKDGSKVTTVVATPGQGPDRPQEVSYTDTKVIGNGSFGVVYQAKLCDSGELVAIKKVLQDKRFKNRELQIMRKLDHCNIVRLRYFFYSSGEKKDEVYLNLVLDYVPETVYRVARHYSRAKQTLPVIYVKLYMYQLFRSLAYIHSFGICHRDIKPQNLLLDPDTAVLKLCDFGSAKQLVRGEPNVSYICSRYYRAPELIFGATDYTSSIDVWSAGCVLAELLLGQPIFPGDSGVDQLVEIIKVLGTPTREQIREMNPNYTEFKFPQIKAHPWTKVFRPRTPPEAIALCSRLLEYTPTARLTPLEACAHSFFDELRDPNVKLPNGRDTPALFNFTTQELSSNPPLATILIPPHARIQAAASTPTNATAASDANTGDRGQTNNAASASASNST

[8] = target: T5, TRIM24 (Homo sapiens, UniProt O15164); assay: Liability panel screening by DSF: TRIM24; type: binding; settings: read-out: Mean ΔTM TRIM24
T5 construct: This panel comprised ten highly ligandable kinases and bromodomains; made in house
T5 sequence (O15164 899-1004 limits assumed): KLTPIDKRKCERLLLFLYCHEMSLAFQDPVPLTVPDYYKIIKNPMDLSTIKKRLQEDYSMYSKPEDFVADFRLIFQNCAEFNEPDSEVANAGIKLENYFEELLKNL
How it was run: as §1

[9] = system: NF-κB activity in HEK293 NF-κB reporter cells; assay: NF-kB activity assay (GFP reporter, ionomycin/PMA); type: cell-based; settings: for Mean NFκB response: n=3; for NF-κB activity (inflammatory response to ionomycin/PMA): HEK293 NF-κB reporter cells, compounds at recommended concentrations, imaged over 24 h, n = 3
How it was run: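 Reporter readout: GFP-expressing cells normalized to confluence, imaged every 90 min across 24 h after ionomycin (100 ng/mL)/PMA (10 ng/mL) stimulation of HEK293 cells pre-treated 4 h with compound (0.1% DMSO); triplicate independent experiments.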

[10] = target: T6, CDK2 (Homo sapiens, UniProt P24941); assay: Liability panel screening by DSF: CDK2; type: binding; settings: read-out: Mean ΔTM CDK2
T6 construct: made in house
How it was run: as §1

[11] = system: HEK293T cells; assay: Cytotoxicity: apoptosis induction (caspase-3/7 DEVD fluorogenic DNA dye); settings: 1 µM; HEK293T, 24 h; apoptotic cell count normalized to 0.1% DMSO; single replicates
[12] = system: HEK293T cells; assay: Cytotoxicity: metabolic activity (WST-8 / CCK-8 assay); settings: 1 µM; HEK293T, 24 h; WST-8; normalized to 0.1% DMSO; single replicates
[13] = target: T7, BRD4 (Homo sapiens, UniProt O60885); assay: Liability panel screening by DSF: BRD4; type: binding; settings: read-out: Mean ΔTM BRD4
T7 construct: This panel comprised ten highly ligandable kinases and bromodomains; made in house
How it was run: as §1

[14] = target: T8, FGFR3 (Homo sapiens, UniProt P22607); assay: Liability panel screening by DSF: FGFR3; type: binding; settings: read-out: Mean ΔTM FGFR3
T8 construct: made in house
T8 sequence (P22607 23-806, species assumed): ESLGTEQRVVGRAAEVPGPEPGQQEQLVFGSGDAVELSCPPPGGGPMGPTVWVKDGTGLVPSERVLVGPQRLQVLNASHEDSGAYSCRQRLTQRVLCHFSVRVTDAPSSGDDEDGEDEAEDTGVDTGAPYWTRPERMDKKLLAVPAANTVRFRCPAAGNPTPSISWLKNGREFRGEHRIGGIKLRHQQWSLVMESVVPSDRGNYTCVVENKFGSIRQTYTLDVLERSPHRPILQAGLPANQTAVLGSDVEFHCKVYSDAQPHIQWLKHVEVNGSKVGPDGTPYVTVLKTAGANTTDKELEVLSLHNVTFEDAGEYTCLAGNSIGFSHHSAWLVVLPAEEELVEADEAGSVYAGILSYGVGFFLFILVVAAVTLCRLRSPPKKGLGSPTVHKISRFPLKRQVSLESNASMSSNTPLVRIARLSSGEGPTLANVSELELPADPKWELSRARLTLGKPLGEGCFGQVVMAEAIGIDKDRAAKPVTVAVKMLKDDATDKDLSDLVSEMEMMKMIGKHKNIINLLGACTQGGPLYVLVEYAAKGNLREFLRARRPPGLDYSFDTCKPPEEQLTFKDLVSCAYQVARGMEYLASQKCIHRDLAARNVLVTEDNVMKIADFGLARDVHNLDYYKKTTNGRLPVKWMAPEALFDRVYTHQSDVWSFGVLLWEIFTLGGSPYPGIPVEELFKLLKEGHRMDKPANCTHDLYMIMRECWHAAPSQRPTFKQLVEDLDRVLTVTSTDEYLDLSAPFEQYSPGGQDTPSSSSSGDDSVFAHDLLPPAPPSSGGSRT
How it was run: as §1

[15] = target: T9, BRPF1 (Homo sapiens, UniProt P55201); assay: Liability panel screening by DSF: BRPF1; type: binding; settings: read-out: Mean ΔTM BRPF1
T9 construct: This panel comprised ten highly ligandable kinases and bromodomains; made in house
T9 sequence (P55201 628-732 limits assumed): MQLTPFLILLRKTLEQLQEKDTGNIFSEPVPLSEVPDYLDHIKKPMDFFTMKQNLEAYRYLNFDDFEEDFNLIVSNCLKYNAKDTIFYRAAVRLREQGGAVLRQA
How it was run: as §1

[16] = system: HEK293T cells; assay: Cytotoxicity: growth-rate (change in confluence over 24 h); settings: 1 µM, normalized to 0.1% DMSO control, single replicates (n=1...)
[17] = target: T10, CSNK1D (Homo sapiens, UniProt P48730); assay: Liability panel screening by DSF: CSNK1D; type: binding; settings: read-out: Mean ΔTM CSNK1D
T10 construct: made in house
T10 sequence (P48730 whole entry, species assumed): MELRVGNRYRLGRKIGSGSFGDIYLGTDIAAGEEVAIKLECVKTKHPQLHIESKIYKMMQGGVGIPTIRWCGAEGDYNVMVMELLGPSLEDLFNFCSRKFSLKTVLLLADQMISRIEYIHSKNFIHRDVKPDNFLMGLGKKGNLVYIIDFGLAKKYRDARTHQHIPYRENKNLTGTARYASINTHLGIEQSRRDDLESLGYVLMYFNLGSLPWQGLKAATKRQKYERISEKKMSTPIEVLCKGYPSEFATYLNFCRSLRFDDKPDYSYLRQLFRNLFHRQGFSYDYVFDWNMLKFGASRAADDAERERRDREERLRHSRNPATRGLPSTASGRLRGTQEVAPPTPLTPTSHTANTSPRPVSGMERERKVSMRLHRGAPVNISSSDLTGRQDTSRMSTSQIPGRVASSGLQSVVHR
How it was run: as §1

[18] = system: NR3A1 (ERα); settings: cited from earlier work
[19] = system: Gal4-VP16; type: cell-based; settings: 1 µM; vs. DMSO ctrl; single replicates n=1-3
Experimental: Five hours after transfection, the cells were incubated with the NR3 CG compound candidates at the recommended concentrations by changing the medium to Opti-MEM supplemented with penicillin (100 µ/mL) and streptomycin (100 µg/mL) additionally containing 0.1% DMSO and the respective test compound or 0.1% DMSO alone as untreated control. Firefly (reporter) and renilla (control) luminescence were measured after 14–16 h incubation using the Dual-Glo® Luciferase Assay System (Promega, Fitchburg, Wisconsin, USA; #E2980) according to manufacturer’s protocol on a Tecan Spark® 10M multimode microplate reader (Tecan Group AG, Männedorf, Switzerland). To obtain relative light units (RLU) firefly luminescence was divided by renilla luminescence and multiplied by 1000. Fold activation was obtained by dividing the mean RLU of a test sample by the mean RLU of the DMSO (0.1%) control. Experiments were performed in singlets in at least three biologically independent repeats.
are labeled according to their mode of action (yellow - agonist, grey - antagonist, grey with label D - degrader) and grouped by their
NR3 subfamily main targets.
reporter activity at the indicated concentrations expressed as mean fold reporter gene activity (n=3).

Structure (SMILES)	Necrosis induction [NI] [5]	ATF6 activity (tunicamycin-induced endoplasmic reticulum stress) [6]	activity at 1 µM [6]	Mean NFκB response ([9]; 1 µM, 1,5 h)	Mean NFκB response ([9]; 1 µM, 4,5 h)	Mean NFκB response ([9]; 1 µM, 7,5 h)	Mean NFκB response ([9]; 1 µM, 10,5 h)	Mean NFκB response ([9]; 1 µM, 13,5 h)	Mean NFκB response ([9]; 1 µM, 16,6 h)	Mean NFκB response ([9]; 1 µM, 19,5 h)	Mean NFκB response ([9]; 1 µM, 22,5 h)	Mean NFκB response ([9]; 1 µM, 3 h)	Mean NFκB response ([9]; 1 µM, 6 h)	Mean NFκB response ([9]; 1 µM, 9 h)	Mean NFκB response ([9]; 1 µM, 12 h)	Mean NFκB response ([9]; 1 µM, 15 h)	Mean NFκB response ([9]; 1 µM, 18 h)	Mean NFκB response ([9]; 1 µM, 21 h)	Mean NFκB response ([9]; 1 µM, 24 h)	NF-κB activity (inflammatory response to ionomycin/PMA) [9]	further results
CC[C@@H]1Cc2cc(O)ccc2C2=C1c1ccc(O)cc1C[C@H]2CC [(R,R)-THC]	1.00 and 0.96 and 0.79 and 1.43	mediated resolution of the tunicamycin-induced endoplasmic reticulum stress	66%	3557.96 GFP+-cells/confluence ∙ 1000	4261.58 GFP+-cells/confluence ∙ 1000	9104.56 GFP+-cells/confluence ∙ 1000	19176.29 GFP+-cells/confluence ∙ 1000	27638.90 GFP+-cells/confluence ∙ 1000	33810.34 GFP+-cells/confluence ∙ 1000	37834.35 GFP+-cells/confluence ∙ 1000	40864.97 GFP+-cells/confluence ∙ 1000	3459.65 GFP+-cells/confluence ∙ 1000	5471.05 GFP+-cells/confluence ∙ 1000	14572.22 GFP+-cells/confluence ∙ 1000	23454.30 GFP+-cells/confluence ∙ 1000	30888.37 GFP+-cells/confluence ∙ 1000	35947.21 GFP+-cells/confluence ∙ 1000	39332.93 GFP+-cells/confluence ∙ 1000	42047.68 GFP+-cells/confluence ∙ 1000	no impact on NF-κB activity	ΔTm at 20 µM [1]: 1.62 °C; ΔTm at 20 µM [2]: 5.33 °C; IC50 ([3]; (lit.), ref Supplementary Table 1, read-out: Potency [nM] IC50, NR3A2 (ERβ)): ~4 nM; rel. activity from literature, NR3A2 (ERβ): RBA to estradiol ([3]; relative binding affinity to estradiol): 25 ± 6 RBA; ΔTm at 20 µM [4]: 0.61 °C; ΔTm at 20 µM [7]: 1.59 °C; ΔTm at 20 µM [8]: 0.93 °C; ΔTm at 20 µM [10]: 1.76 °C; Apoptosis induction [AI] [11]: -0.98 and -0.31 and -0.46 and 0.85 and 0.74 and 1.53; Metabolic activity [MA] [12]: 1.06 and 1.04 (2×) and 0.92 and 1.05 (2×) and 0.98 and 0.82; ΔTm at 20 µM [13]: -3.36 °C; ΔTm at 20 µM [14]: 0.08 °C; ΔTm at 20 µM [15]: -0.77 °C; Growth rate [GR] [16]: 1.15 and 0.31 and 1.59 and 1.75 and 1.08 and 0.52 and 0.68 and 0.76 and 0.64 and 0.98; ΔTm at 20 µM [17]: -0.65 °C
COc1ccc2c(c1)OC(C)(C)C(c1ccccc1)C2c1ccc(OCCN2CCCC2)cc1 (centres unmarked) [Ormeloxifene]	1.44 and 1.00 and 0.84 and 1.46	mediated resolution of the tunicamycin-induced endoplasmic reticulum stress	39%	3755.51 GFP+-cells/confluence ∙ 1000	4450.99 GFP+-cells/confluence ∙ 1000	10042.81 GFP+-cells/confluence ∙ 1000	20884.44 GFP+-cells/confluence ∙ 1000	30159.52 GFP+-cells/confluence ∙ 1000	36246.87 GFP+-cells/confluence ∙ 1000	41125.44 GFP+-cells/confluence ∙ 1000	44312.79 GFP+-cells/confluence ∙ 1000	3914.66 GFP+-cells/confluence ∙ 1000	5719.43 GFP+-cells/confluence ∙ 1000	15929.12 GFP+-cells/confluence ∙ 1000	25867.46 GFP+-cells/confluence ∙ 1000	33826.67 GFP+-cells/confluence ∙ 1000	39021.43 GFP+-cells/confluence ∙ 1000	42782.99 GFP+-cells/confluence ∙ 1000	45591.11 GFP+-cells/confluence ∙ 1000	no impact on NF-κB activity	ΔTm at 20 µM ([1]; DSF, 20 µM, n=2): 0.51 °C; ΔTm at 20 µM ([2]; DSF, 20 µM, n=2): -0.02 °C; ΔTm at 20 µM ([4]; DSF, 20 µM, n=2): -2.68 °C; ΔTm at 20 µM ([7]; DSF, 20 µM, n=2): 0 °C; ΔTm at 20 µM ([8]; DSF, 20 µM, n=2): -3.44 °C; EC50 ([18]; (lit.), ref Supplementary Table 1, read-out: Potency [nM] EC50, NR3A1 (ERα)): 13 ± 0.4 nM; rel. activity from literature, NR3A1 (ERα): % of moxestrol ([18]; of moxestrol): 25 ± 2%; ΔTm at 20 µM ([10]; DSF, 20 µM, n=2): -2.04 °C; Apoptosis induction [AI] [11]: 0.93 and 1.23 and 0.90 and 1.47 and 0.53 and 0.80; Metabolic activity [MA] [12]: 1.06 and 1.01 and 0.96 and 1.00 and 1.02 and 0.99 and 1.05 (2×); ΔTm at 20 µM ([13]; DSF, 20 µM, n=2): -3.83 °C; VP16 control [fold reporter gene activity] [19]: 1.02 fold reporter gene activity and 1.04 fold reporter gene activity and 1.38 fold reporter gene activity; ΔTm at 20 µM ([14]; DSF, 20 µM, n=2): 0.15 °C; ΔTm at 20 µM ([15]; DSF, 20 µM, n=2): -2.59 °C; Growth rate [GR] [16]: 0.58 and 1.95 and 0.92 and 1.05 and 0.91 and 0.78 and 1.00 and 2.25 and 0.88 and 10.36; ΔTm at 20 µM ([17]; DSF, 20 µM, n=2): -0.1 °C
